Series [1] can be described thus: Metabolic stability in monkey kidney brush border membranes (kBBM). Format: in vitro ADME. Particulars: pH 7.4, read-out: kBBM t½. How it is done:
Brush border membranes from rat and human kidney tissue were prepared via centrifugation and stored at −70° C. Thawed stocks of rat or human kBBM were diluted to the appropriate concentration in 25 mM HEPES buffer (pH 7.4) containing 1% casein and aliquoted into a 96-well plate. The kBBM solutions were pre-warmed for 10 minutes at 37° C. Reactions were initiated by the addition of test peptide (1 mcM final concentration) also dissolved in 25 mM HEPES buffer (pH 7.4) containing 1% casein. The final concentration of kBBM in each incubation was 50 mcg protein/mL. Reactions were maintained at 37° C. in a shaking water bath. At 0, 0.25, 0.5, 1.0, 2.0, and 4.0 h post-initiation, 30 mcL of the reaction mixture was removed and placed into a 96-well plate containing 120 mcL of ice-cold methanol containing 2.5% formic acid. Quenched samples were centrifuged at 2178×g for 10 min and then a portion of the supernatants were transferred to a clean 96-well plate and diluted 1:1 with water.

Series [2] can be described thus: Stability in human subcutaneous (SC) tissue homogenates. The class given is in vitro ADME. Particulars: subcutaneous (SC) tissue homogenate, 10 mcM peptide, 1.0 mg protein/mL, 37° C., pH 7.4, read-out: (H)SC tissue stability t½ (converted). How it is done:
(§1) In vitro incubations in subcutaneous (SC) tissue homogenates were used to characterize the ability of peptides to resist pre-systemic degradation by proteases and peptidases after SC administration. In vivo nonclinical studies have shown that peptidase activity in the SC space can limit the bioavailability of a peptide after SC administration. Peptides with high SC bioavailability are stable in this assay, while peptides with low SC bioavailability are unstable in this assay.
(§2) Human SC tissue was homogenized in cold 25 mM HEPES buffer (pH 7.4, 10-fold volume based on sample weight), and then filtered through a double layer of cheesecloth. The filtrates were aliquoted, flash frozen on a methanol/dry ice bath and stored at −80° C. The protein concentration of each pooled batch was determined using the BCA protein assay. Thawed stocks of human SC tissue homogenates were diluted to 1.0 mg protein/mL in 25 mM HEPES buffer (pH 7.4) and aliquoted into a 96-well plate. The diluted SC homogenates were pre-warmed for 10 minutes at 37° C. Reactions were initiated by the addition of test peptide (10 mcM final concentration) also dissolved in 25 mM HEPES buffer (pH 7.4). Reactions were maintained at 37° C. in a shaking water bath. […] Samples were analyzed by UPLC-MS/MS.

A short description of series [3]: Intravenous infusion pharmacokinetics in rats. Format: in vivo. To be noted: rat, plasma, IV infusion 0.033 mg/kg, male Sprague-Dawley rats. How it is done:
Peptides were dissolved in 0.05% Tween-20 in phosphate buffered saline and administered as a 1-hour intravenous infusion to non-fasted male Sprague-Dawley rats (n=3 per group) via femoral vein cannula at a final dose of 0.033 mg/kg. Formulations were administered at a rate of 1.67 mL/kg/h. Blood samples (approximately 250 μL) were collected for pharmacokinetic analysis via a jugular vein cannula at 0.25, 0.5, 0.75, 1, 1.17, 1.33, 1.5, 2, 4, 8, 24, 48, 72, and 96 hours post-start of infusion into microtainer tubes containing K2EDTA as anticoagulant and 25 μL of a protease inhibitor cocktail. Plasma was prepared by centrifugation and stored at −80° C. until analysis.
A 70 μL aliquot of each plasma sample was placed into to a 96-well plate. To each well was added 210 μL of 0.1% TFA in 2:1 ethanol:acetonitrile containing an appropriate internal standard. Plates were vortex mixed for 10 min at 1300 rpm, and then centrifuged for 10 min at 500× g. Supernatants (210 μL) were placed into a clean 96-well plate and evaporated under a nitrogen stream at 45° C. Residues were reconstituted in 80 μL of 20% acetonitrile (aq) containing 0.1% formic acid.
All calibration standards were prepared in control rat plasma containing K2EDTA and protease inhibitor cocktail.
Samples and standards were analyzed by electrospray ionization (ESI) UPLC-MS/MS using a system consisting of a CTC HTS PAL auto-injector (Leap, Carrboro, NC), an Agilent Infinity 1290 system with column oven (Palo Alto, CA), a Valco switching valve (Houston, TX), and a Sciex TripleTOF® 5600 mass spectrometer (Framingham, MA). Samples were injected onto a 2.1×50 mm reverse phase C18 analytical column, typically a Waters CORTECS UPLC C18+, 1.6 μm (Waters Corporation, Milford, MA) or similar. […] Initial conditions consisted of 95% A and 5% B. The organic component was increased to 95% B over a period of 3-4 minutes, depending on the peptide. Typical flow rates were 550 μL/min. The column temperature was held constant at 45° C. Peptides were quantified by monitoring one or more product ions produced from a multiply charged parent ion.

Series [4] can be described thus: Stability in subcutaneous (SC) tissue homogenates, monkey. Format: in vitro ADME. Particulars: subcutaneous (SC) tissue homogenate, pH 7.4, read-out: (H)SC tissue stability t½ (converted). How it is done: as §1, §2

*1 amine or outer side, *2 acyl side, *3 side chain or, on linkers, in order; H or OH if unused. Where a SMILES comes first, the peptide text is derived from it. Side-chain parts run from the residue outwards. [ ]: non-standard residue; d: D form. The star is where a group is joined. C20 diacid = O=C(O)CCCCCCCCCCCCCCCCCCC(=O)*; γGlu = O=C(O)[C@H](CCC(=O)[*:2])N[*:1]; AEEA = NCCOCCOCC(=O)O; Aib = CC(C)(N)C(=O)O Some results are limits rather than exact numbers.

Regarding `CC(C)C[C@H](NC(=O)[C@H](Cc1ccc(O)cc1)NC(=O)[C@H](CCCCN)NC(=O)[C@H](CO)NC(=O)[C@H](Cc1ccc(O)cc1)NC(=O)[C@H](CC(=O)O)NC(=O)[C@H](CO)NC(=O)[C@@H](NC(=O)[C@H](Cc1ccccc1)NC(=O)[C@@H](NC(=O)CNC(=O)[C@H](Cc1c[nH]cn1)NC(=O)[C@H](CO)NC(=O)[C@@H](N)Cc1ccc(O)cc1)[C@@H](C)O)[C@@H](C)O)C(=O)N[C@@H](CC(=O)O)C(=O)NC(C)(C)C(=O)N[C@@H](CCCCN)C(=O)N[C@@H](Cc1ccc(O)cc1)C(=O)N[C@@H](C)C(=O)N[C@@H](CCC(N)=O)C(=O)N[C@@H](CCCCNC(=O)CC[C@H](NC(=O)CC[C@H](NC(=O)COCCOCCNC(=O)CCCCCCCCCCCCCCCCCCC(=O)O)C(=O)O)C(=O)O)C(=O)N[C@@H](Cc1ccccc1)C(=O)N[C@H](C(=O)NC(C)(C)C(=O)N[C@@H](Cc1c[nH]c2ccccc12)C(=O)N[C@@H](CC(C)C)C(=O)N[C@@H](CCC(=O)O)C(=O)N[C@@H](CC(=O)O)C(=O)N[C@@H](CCC(=O)O)C(=O)N1CCC[C@H]1C(=O)N[C@@H](CO)C(=O)N[C@@H](CO)C(=O)NCC(=O)N[C@@H](C)C(=O)N1CCC[C@H]1C(=O)N1CCC[C@H]1C(=O)N1CCC[C@H]1C(=O)N[C@@H](CO)C(=O)O)C(C)C` [Compound A6] (H-YSHGTFTSDYSKYLD[Aib]KYAQK([γGlu-γGlu-AEEA-C20 diacid])FV[Aib]WLEDEPSSGAPPPS-OH; N-terminus assumed), the half-life at 1 mcM in series [1] is over 12 h. Besides, the half-life at 10 mcM is 10.6 h in series [2] and 5 h in series [4]. In series [3] (1-hour), the clearance came to 4.97 mL/h/kg. The compound also showed a half-life in series [3] of 13 h. In series [3] (read-out: Vss), the Vd was determined as 0.0867 L/kg.

(Values after patent US20240228572A1 (i2o Therapeutics, Inc., priority 2020, published 2024).)
